From article PMC7436013, “Design, Synthesis, and Biological Investigation of Novel Classes of 3-Carene-Derived Potent Inhibitors of TDP1” (Molecules, 2020)
“Also recorded” adds a separate entry of the source.

Tests used:
[1] = target: T1, TDP1 (Homo sapiens, UniProt Q9NUW8); test: Real-time detection of TDP1 activity with fluorescent oligonucleotide biosensor; type: biochemical; settings: for IC50: real-time fluorescent oligonucleotide biosensor, 1.5 nM TDP1, 50 nM substrate, read-out: IC50, TDP1 inhibition
T1 construct: made in house; host or cells: Escherichia coli
T1 sequence (Q9NUW8 whole entry): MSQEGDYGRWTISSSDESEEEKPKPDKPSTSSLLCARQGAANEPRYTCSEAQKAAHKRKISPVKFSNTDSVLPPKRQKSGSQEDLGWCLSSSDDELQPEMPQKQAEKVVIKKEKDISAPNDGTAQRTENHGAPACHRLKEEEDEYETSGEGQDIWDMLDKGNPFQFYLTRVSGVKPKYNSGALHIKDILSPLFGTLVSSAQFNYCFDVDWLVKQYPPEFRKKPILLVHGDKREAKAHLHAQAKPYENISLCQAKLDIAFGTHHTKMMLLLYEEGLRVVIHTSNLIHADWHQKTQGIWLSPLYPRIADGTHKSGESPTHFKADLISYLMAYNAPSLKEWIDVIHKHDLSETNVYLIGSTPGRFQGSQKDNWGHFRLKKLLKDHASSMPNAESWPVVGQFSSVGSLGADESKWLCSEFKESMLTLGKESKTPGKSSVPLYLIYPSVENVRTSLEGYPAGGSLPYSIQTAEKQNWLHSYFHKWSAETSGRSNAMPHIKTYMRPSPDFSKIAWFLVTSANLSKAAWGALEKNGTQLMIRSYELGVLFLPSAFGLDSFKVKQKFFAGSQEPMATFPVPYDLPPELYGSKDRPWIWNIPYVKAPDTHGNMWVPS
Description: The compounds synthesized starting from (+)-3-carene 8 were tested for their TDP1 inhibitory properties by measuring their IC50 values using a real-time fluorescent oligonucleotide biosensor [38].
A fluorophore quencher-coupled oligonucleotide biosensor was used for TDP1 enzyme activity real-time fluorescence detection. […] Recombinant protein TDP1 was expressed in Escherichia coli (pET 16B plasmid containing TDP1 cDNA was provided by Dr. K.W. Caldecott, University of Sussex, United Kingdom) and isolated as described by Lebedeva et al.. The reaction mixture contained TDP1 reaction buffer (50 mM Tris-HCl, 50 mM NaCl, 7 mM β-mercaptoethanol), 50 nM oligonucleotide substrate, varied concentrations of the tested compounds, and 1.5 nM purified TDP1 in a final volume of 200 μL.
The TDP1 reaction mixture was incubated at rt in a POLARstar OPTIMA fluorimeter (BMG LABTECH, GmbH). Fluorescence intensity was measured every 1 min (Ex485/Em520 nm). The efficiency of TDP1 inhibition was evaluated by comparing the rate of increase in the fluorescence of the biosensor in the presence of the compound to that of DMSO (1.5%) control wells. IC50 values were determined using an 11-point concentration–response curve. The data were imported into MARS Data Analysis 2.0 program (BMG LABTECH) and the slope during the linear phase was calculated. The IC50 measurements were carried out in at least three independent experiments.

[2] = tested on: in vivo Parkinson model; settings: ref [24]; cited from earlier work
[3] = ref [24]; cited from earlier work
[4] = tested on: HEK293FT WT cells; test: Colorimetric cytotoxicity test (MTT/EZ4U), HEK293FT WT; type: cell-based, human; settings: for effect of TDP1 inhibitor in conjunction with Tpc on cell growth: Tpc 200 nM; for IC50: Homo sapiens, HEK293FT, 72 h, read-out: Tpc IC50, colorimetric test
Description: (§1) We analyzed, using a colorimetric test, the relative amount of viable cells after treating HEK293FT WT and TDP1-deficient (TDP1−/−) cells with increasing concentrations of Tpc for 72 h. […] Next, we studied WT and mutant cells’ live activity after Tpc treatment on the xCELLigence System (ACEA Biosciences, USA) by the impedance-based assay. HEK293FT TDP1−/− cells were more sensitive to Tpc (Figure 2B). After Tpc administration to the cells, an […] of the slope was seen, characterizing the velocity of the cell growth with Tpc as compared to the control both for WT (red columns) and mutant cells (green columns) (Figure S1, Supplementary Materials). […] The sharper decrease of the slope for the mutant cells than for the WT (compare the histogram for the 0 and 0.05 μM Tpc concentration, ~1.5 times for WT cells (red) and ~6 times for TDP1−/−cells (green)) also characterizes the higher sensitivity of the mutant to the TOP1 inhibitor. […] There was a three-fold difference for these IC50 values, which is nearly the same as for the colorimetric assay.
(§2) The cytotoxicity of the compounds was examined against human cell lines HEK293FT (human embryonic kidney), WT and TDP1-deficient (TDP1-/-), HCT116 (human colon cancer), IMR-32 (human neuroblastoma cell line), HeLa (cervical cancer), and Krebs-2 carcinoma ascites using MTT and EZ4U colorimetric tests or an xCELLigence DP Real-Time Cell Analyzer (ACEA Biosciences, San Diego, CA, USA) for HEK293FT in cells exposed to the compounds. The cells were grown in DMEM/F12 or IMDM (for IMR-32 and Krebs-2) medium (Gibco), with 1x GlutaMAX (Gibco), 50 IU/mL penicillin, 50 μg/mL streptomycin (MP Biomedicals, Irvine, CA, USA) and in the presence of 10% fetal bovine serum (Biolot). The cells (~20,000 cells per well) were incubated for 24 h at 37 °C in 5% CO2, and then treated with the tested compounds (the volume of the added reagents was 1/100 of the total volume of the culture medium, the amount of DMSO was 1% of the final volume as indicated). Control cells were grown in the presence of 1% DMSO where indicated. After 72 h of cell incubation, the relative amount of living cells was determined using a colorimetric test of the amount of formazan converted from 3-(4,5-dimethylthiazol-2-yl)-2,5-diphenyl-2H-tetrazolium bromide (MTT test) or EZ4U Cell Proliferation and Cytotoxicity Assay (Biomedica, Austria), as per the manufacturer’s protocols. The real-time detection of the living cells was done by an xCELLigence DP Real-Time Cell Analyzer (ACEA Biosciences). The measurements were carried out in three parallel experiments.

[5] = tested on: HEK293FT TDP1−/− cells; test: Colorimetric cytotoxicity test (MTT/EZ4U), HEK293FT TDP1-/-; type: cell-based, human; settings: for effect of TDP1 inhibitor in conjunction with Tpc on cell growth: Tpc 30 nM; for IC50: Homo sapiens, HEK293FT, 72 h, read-out: Tpc IC50, colorimetric test
Description: as §1, §2

[6] = tested on: HeLa (cervical carcinoma); test: Colorimetric cytotoxicity test, HeLa; type: cell-based, human; settings: for enhancement of the Tpc cytotoxicity: data not shown
Description: as §2

[7] = tested on: HCT116 (human colon cancer); test: Colorimetric cytotoxicity test, HCT116; type: cell-based; settings: for intrinsic cytotoxicity: HCT116; for dose-dependent action of inhibitor in the presence of Tpc on cell growth: HCT, Tpc 900 nM, Figure 4B
Description: as §2

[8] = tested on: IMR-32 (human neuroblastoma cell line); test: Colorimetric cytotoxicity test, IMR-32; type: cell-based; settings: for dose-dependent action of Tpc in the presence of inhibitor: IMR-32, Figure 4C; for dose-dependent action of inhibitor in the presence of Tpc on cell growth: IMR-32, Tpc 8 nM, Figure 4B
Description: as §2

[9] = tested on: Krebs-2 carcinoma cells; test: Colorimetric cytotoxicity test, Krebs-2; type: cell-based
Description: as §2, with “The real-time detection of the living cells was done by an xCELLigence DP Real-Time Cell Analyzer (ACEA Biosciences). The measurements were carried out in three parallel experiments.” left out

[10] = tested on: HEK293FT WT cells; test: Impedance-based real-time assay (xCELLigence), HEK293FT WT; type: cell-based, human
Description: as §1, with “colorimetric assay. […]” for “colorimetric assay.”

[11] = tested on: HEK293FT TDP1−/− cells; test: Impedance-based real-time assay (xCELLigence), HEK293FT TDP1-/-; type: cell-based, human
Description: as §1, with “colorimetric assay. […]” for “colorimetric assay.”

[12] = tested on: TDP1; set-up: method as in PMID 31619021, PMID 30396105, PMID 30142660, PMID 29562592, PMID 27658793; settings: Figure 1; ref [10]-[13],[16]-[18],[20],[22]; read-out: IC50 of known TDP1 inhibitors; cited from earlier work
[13] = tested on: human breast adenocarcinoma cell line MCF-7; set-up: method as in PMID 27658793; settings: ref [16]; cited from earlier work
[14] = tested on: lung adenocarcinoma cells A549; set-up: method as in PMID 30523770, doi:10.3390/app9132767; settings: ref [18],[20]; cited from earlier work
[15] = Homo sapiens, in H2O, read-out: Tpc IC50, impedance-based assay

## COc1cc(C2OC(C)(C)[C@@H]3CCC(C)=C[C@H]23)ccc1O (mixture of isomers) [11a]
[1]
  activity against TDP1 (in words): do not exhibit activity
  IC50: > 20000 nM
[2]
  neuroprotective activity: potent neuroprotective activity
[3]
  acute toxicity: low acute toxicity

## C/C=C/C1OC(C)(C)[C@@H]2CCC(C)=C[C@H]12 (some centres unmarked) [11c]
[1]
  activity against TDP1 (in words): do not exhibit activity
  IC50: > 20000 nM

## CC1=C[C@@H]2[C@@H](c3cccs3)OC(C)(C)[C@@H]2CC1 [11d, (1S,3aR,7aS)-3,3,6-trimethyl-1-(thiophen-2-yl)-1,3,3a,4,5,7a-hexahydroisobenzofuran]
[1]
  IC50: 4850 ± 1060 nM

## CC1=C[C@@H]2[C@@H](c3sccc3C)OC(C)(C)[C@@H]2CC1 [11e, (1S,3aR,7aS)-3,3,6-trimethyl-1-(3-methylthiophen-2-yl)-1,3,3a,4,5,7a-hexahydroisobenzofuran]
[1]
  IC50: 3600 ± 1700 nM

## CC1=C[C@@H]2[C@@H](c3ccc(C)s3)OC(C)(C)[C@@H]2CC1 [11f, (1S,3aR,7aS)-3,3,6-trimethyl-1-(5-methylthiophen-2-yl)-1,3,3a,4,5,7a-hexahydroisobenzofuran]
[1]
  IC50: 4700 ± 2000 nM

## CC1=C[C@@H]2[C@@H](c3ccc(Br)s3)OC(C)(C)[C@@H]2CC1 [11h, (1S,3aR,7aS)-3,3,6-trimethyl-1-(5-bromothiophen-2-yl)-1,3,3a,4,5,7a-hexahydroisobenzofuran]
[1]
  IC50: 750 ± 70 nM
[4]
  effect of TDP1 inhibitor in conjunction with Tpc on cell growth: cell growth suppression; also recorded: synergistic effect; also recorded: Suppressed cell growth
[5]
  effect of TDP1 inhibitor in conjunction with Tpc on cell growth: not found; also recorded: no effect
[6]
  intrinsic cytotoxicity: low
  enhancement of the Tpc cytotoxicity: no enhancement
[7]
  intrinsic cytotoxicity: low
  dose-dependent action of inhibitor in the presence of Tpc on cell growth: no effect
[7]; HCT116, Figure 4C
  dose-dependent action of Tpc in the presence of inhibitor: enhanced Tpc’s potency
[8]; IMR-32
  intrinsic cytotoxicity: low
[8]
  dose-dependent action of Tpc in the presence of inhibitor: synergistic action
  dose-dependent action of inhibitor in the presence of Tpc on cell growth: suppressed cell growth
[9]
  intrinsic cytotoxicity: low

## CC1=C[C@@H]2[C@@H](c3ccsc3)OC(C)(C)[C@@H]2CC1 [11k, (1S(R),3aR,7aS)-3,3,6-trimethyl-1-(thiophen-3-yl)-1,3,3a,4,5,7a-hexahydroisobenzofuran]
[1]
  IC50: 1600 ± 560 nM

## COc1cc(C2OC(C)(C)C3CC=C(C)C2C3)ccc1O (centres unmarked) [12a]
[1]
  activity against TDP1 (in words): do not exhibit activity
  IC50: > 20000 nM

## CC1=CC[C@@H]2C[C@H]1[C@H](c1cccs1)OC2(C)C [12d, (1R,4R,5R)-2,2,6-trimethyl-4-(thiophen-2-yl)-3-oxabicyclo[3.3.1]non-6-ene]
[1]
  IC50: 3350 ± 1060 nM

## CC1=CC[C@@H]2C[C@H]1[C@H](c1sccc1C)OC2(C)C [12e, (1R,4R,5R)-2,2,6-trimethyl-4-(3-methylthiophen-2-yl)-3-oxabicyclo[3.3.1]non-6-ene]
[1]
  IC50: 2250 ± 630 nM

## CC1=CC[C@@H]2C[C@H]1[C@H](c1cc(Br)cs1)OC2(C)C [12g, (1R,4R,5R)-2,2,6-trimethyl-4-(4-bromothiophen-2-yl)-3-oxabicyclo[3.3.1]non-6-ene]
[1]
  IC50: 650 ± 220 nM

## CC1=CC[C@@H]2C[C@H]1[C@H](c1ccc(Br)s1)OC2(C)C [12h, (1R,4R,5R)-2,2,6-trimethyl-4-(5-bromothiophen-2-yl)-3-oxabicyclo[3.3.1]non-6-ene]
[1]
  IC50: 1750 ± 780 nM

## CC1=CC[C@@H]2C[C@H]1[C@H](c1ccc([N+](=O)[O-])o1)OC2(C)C [12j, (1R,4R,5R)-2,2,6-trimethyl-4-(5-nitrofuran-2-yl)-3-oxabicyclo[3.3.1]non-6-ene]
[1]
  activity against TDP1 (in words): did not exhibit high activity
  IC50: 28000 ± 10000 nM

## CC1=CC[C@@H]2C[C@H]1[C@H](c1ccsc1)OC2(C)C [12k, (1R,4R,5R)-2,2,6-trimethyl-4-(thiophen-3-yl)-3-oxabicyclo[3.3.1]non-6-ene]
[1]
  IC50: 1200 ± 140 nM
[4]
  effect of TDP1 inhibitor in conjunction with Tpc on cell growth: cell growth suppression; also recorded: synergistic effect; also recorded: Suppressed cell growth
[5]
  effect of TDP1 inhibitor in conjunction with Tpc on cell growth: not found; also recorded: no effect
[6]
  intrinsic cytotoxicity: low
  enhancement of the Tpc cytotoxicity: no enhancement
[7]
  intrinsic cytotoxicity: low
  dose-dependent action of inhibitor in the presence of Tpc on cell growth: no effect
[8]; IMR-32
  intrinsic cytotoxicity: low
[8]
  dose-dependent action of Tpc in the presence of inhibitor: synergistic action
  dose-dependent action of inhibitor in the presence of Tpc on cell growth: suppressed cell growth
[9]
  intrinsic cytotoxicity: low

## CC[C@@]1(O)C(=O)OCc2c1cc1n(c2=O)Cc2cc3c(CN(C)C)c(O)ccc3nc2-1 [Tpc, topotecan, reference compound]
[4]; in DMSO
  IC50: 200 nM
[4]; in H2O
  IC50: 250 nM
[5]; in DMSO
  IC50: 30 nM
[5]; in H2O
  IC50: 150 nM
[10]; [15]
  IC50: 60 nM
[10]; ~70 h after Tpc treatment
  decrease of the slope (velocity of cell growth), 0 vs 0.05 μM Tpc: ~ 1.5 times
[11]; [15]
  IC50: 20 nM
[11]; ~70 h after Tpc treatment
  decrease of the slope (velocity of cell growth), 0 vs 0.05 μM Tpc: ~ 6 times
[7]; Homo sapiens, HCT-116, read-out: Tpc IC50 (concentration close to IC50)
  IC50: ~900 nM
[8]; Homo sapiens, IMR-32, read-out: Tpc IC50 (concentration close to IC50)
  IC50: ~8 nM

## CC(=O)C[C@H]1CC2C(CCC3C[C@H](OC(C)=O)CC[C@@]32C)C2CC[C@H]([C@H](C)CCC(=O)NC34CC5CC(CC(C5)C3)C4)[C@]21C (some centres unmarked) [compound 2]
[12]
  IC50: 470 nM

## C[C@@H]1CC[C@@H]2[C@@H](C1)O[C@@H](c1ccc(NC(=O)C34CC5CC(CC(C5)C3)C4)s1)C[C@]2(C)O [compound 3]
[12]
  IC50: 1200 nM

## CC1(C)C2CC=C(COc3ccc4c5c(c(=O)oc4c3)CCC5)C1C2 (centres unmarked) [compound 4]
[12]
  IC50: 680 nM
[13]
  reduction of the CC50 of camptothecin: eight-fold

## CC(C)CCCC(C)CCOC(=O)C12CC3CC(CC(C3)C1)C2 (centres unmarked) [compound 6]
[12]
  IC50: 920 nM
[14]
  synergism in combination with Tpc: strong synergism

## CC(C)CCCC(C)CCNC(=S)C12CC3CC(CC(C3)C1)C2 (centres unmarked) [compound 7]
[12]
  IC50: 3300 nM
[14]
  synergism in combination with Tpc: strong synergism
